Here are results for 1 compound from US9226950B2, “Method and composition for treating diabetes mellitus” (National Dong Hwa University, priority 2013, dated 2016).

The subject of one test is L6 myotubes. The experiment in a line: Glucose uptake assay (2-deoxyglucose) in L6 myotubes. The note with it: FIG. 4. The test is classed as cell-based, rat. Here is the method: […] muscle myoblast cells (L6) was a generous gift from Professor Hitoshi Ashida's Lab. (Kobe University, Kobe, Japan). The cells were grown and maintained in α-minimal essential medium (α-MEM, 12000022, GIBCO, CA, USA) containing 10% fetal bovine serum (FBS, GIBCO) and 1% penicillin streptomycin (GIBCO) in a cell culture incubator with 5% CO2 at 37° C. Prior to the following experiments, the cells were seeded and cultured at a density of 8×10^3 cells per well in 96-well plates or 2.5×10^5 cells per well in 6-well plates. After the myoblasts achieved 80% confluence, the cells were incubated for 5 days in the α-MEM supplemented with 2% FBS to induce differentiation to myotubes.
The glucose uptake assay was followed the study disclosed in Yamamoto et al. (“An enzymatic fluorimetric assay to quantitate 2-deoxyglucose and 2-deoxyglucose-6-phosphate for in vitro and in vivo use.” Anal Biochem 404(2): 238-240, 2010) with minor modification and the technique generously assistant from Professor Hitoshi Ashida's Lab (Kobe University, Kobe, Japan). […] Uptake of 2DG into the cells was measured by the enzymatic fluorescence assay. The fluorescence assay buffer was composed of 50 mM TEA buffer, 0.1% BSA, 2.5 mM β-NADP (Wako Pure Chemical, Osaka, Japan), 0.05 unit Diaphorase (Wako), 150 unit/L. mesenteriodes G6PDH (sigma), and 0.5 mM Resazurin sodium salt (sigma). […]

The test system of the next test is GLUT4. The experiment in a line: GLUT4 translocation assay in differentiated C2C12 myotubes. The test is classed as cell-based, mouse. The note with it: FIG. 3. As for the experimental part: Mouse muscle myoblast cells (C2C12) were obtained from the Food Industry Research and Development Institute (FIRDI, Hsinchu, Taiwan). The cells were grown and maintained in Dulbecco's Modified Eagle's Medium high glucose (DMEM-high glucose; GIBCO, CA, USA) containing 10% fetal bovine serum (FBS, GIBCO) and 1% penicillin streptomycin (GIBCO) in a cell culture incubator with 5% CO2 at 37° C. Prior to the following experiments, the cells were seeded and cultured at a density of 8×10^3 cells per well in 96-well plates or 2.5×10^5 cells per well in 6-well plates. […]
The C2C12 cells were fully differentiated with DMEM supplemented with 1% FBS and 1% horse serum for 4 days. […] The translocation changes of GLUT4 of the cells were detected. […] The HRP activity was determined by measuring the absorbance at 450 nm with a spectrophotometer (EnSpire 2300 Multilabel Reader, Perkin Elmer, Waltham, Mass., USA).
To detect the effect of tetracosanol on Glut4 translocation in S961-induced insulin resistance, the differentiated C2C12 cells were treated with or without 20 nM S961 (S961) followed by 185 μM of insulin (Ins), and treated with or without 100 μM of Tetracosanol (Tet) (n=4 in each group). […] At the cellular level, the ability of glucose uptake was determined by controlling the amount of the GLUT4 glucose transporter present in the plasma membrane. […]

In the case of `CCCCCCCCCCCCCCCCCCCCCCCCO` [tetracosanol], the cell glucose uptake result in the test on L6 myotubes (1 μM insulin plus 400 nM S961 and 10 μM tetracosanol (Ins+S961+Tet) versus Ins+Tet) is reported as “synergistic effect”; with L6 myotubes (10 μM tetracosanol with 1 μM insulin (Ins+Tet)) it was “enhanced the cell glucose uptake”. Also, the “insulin-dependent GLUT4 translocation” value in the test on GLUT4 (insulin resistance C2C12 differentiated myotubes induced by 20 nM S961, insulin plus tetracosanol (100 μM)) is recorded as “provided the recovery ability”; in the test with GLUT4 (normal C2C12 differentiated myotubes (Ins), 100 μM tetracosanol, 185 μM insulin), “no effects”.
